Measured values taken from patent publication US8722849B2, “Polypeptides” (Novo Nordisk A/S, priority 2011, dated 2014).
Converted amounts (≈) assume the structure as drawn. Read-outs that look alike come from different tables or passages of the source. Starred links: 1 amine or outer side, 2 acyl side, 3 side chain; linkers in the order of their positions; H or OH if unused. Positions of bridges follow the written chain, without caps; N, C: chain ends. Residues, ends and D or L forms follow the SMILES beside them. Groups on a side chain read outwards from the residue. *: point of attachment. C20 diacid = O=C(O)CCCCCCCCCCCCCCCCCCC(=O)*; C18 diacid = O=C(O)CCCCCCCCCCCCCCCCC(=O)*; γGlu = O=C(O)[C@H](CCC(=O)[*:2])N[*:1]; AEEA = NCCOCCOCC(=O)O

Key:
[1] = Assay (IV) determination of solubility; assay type: physicochemical
Summary of the method: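 Polypeptide in water (~500 nmol/ml stock) was mixed 1:1 with 100 mM buffers from pH 3.0 to 8.0 (glycylglycine pH 3.0–5.0; bistrispropane pH 6.0–8.0). After 18 hours at room temperature, samples were centrifuged and the polypeptide remaining in solution was quantified by HPLC.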

[2] = Assay (III) ThT fibrillation assay for physical stability; assay type: physicochemical
Summary of the method: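 Freshly prepared formulations, pH-adjusted, with 1 μM ThT; four or eight replicates incubated at 37 °C under 960 rpm orbital shaking. Fluorescence (ex 444/em 485 nm) read every 20 min; […]. Peptide concentration measured by RP-HPLC before and after the run.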

[3] = biological target: T1, human calcitonin receptor (Homo sapiens, UniProt P30988); assay: Assay (II)a functional CRE-luciferase assay, human calcitonin receptor; assay type: cell-based
T1 construct: expressed in transfected cells; host or cells: BHK570
T1 sequence (P30988 25-474): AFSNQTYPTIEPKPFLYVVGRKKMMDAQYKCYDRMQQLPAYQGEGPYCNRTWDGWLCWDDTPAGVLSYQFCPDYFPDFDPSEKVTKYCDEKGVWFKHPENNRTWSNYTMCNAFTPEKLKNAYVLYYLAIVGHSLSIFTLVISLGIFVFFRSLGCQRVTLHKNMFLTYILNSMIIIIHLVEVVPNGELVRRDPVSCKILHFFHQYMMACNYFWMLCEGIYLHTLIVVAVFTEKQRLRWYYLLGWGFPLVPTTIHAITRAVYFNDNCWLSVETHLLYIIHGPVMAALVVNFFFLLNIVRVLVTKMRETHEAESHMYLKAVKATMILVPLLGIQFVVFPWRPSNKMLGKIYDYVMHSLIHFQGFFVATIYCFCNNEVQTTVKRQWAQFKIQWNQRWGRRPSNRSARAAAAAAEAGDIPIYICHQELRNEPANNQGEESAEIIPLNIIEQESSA

[4] = biological target: T2, human amylin receptor (amylin 3(a) receptor: human calcitonin receptor + RAMP-3) (Homo sapiens, UniProt O60896+P30988); assay: Assay (II)a functional CRE-luciferase assay, human amylin receptor; assay type: cell-based; settings: Table 2; BHK amylin 3(a)-receptor/CRE-luc cells
T2 construct: expressed in transfected cells; host or cells: BHK570
T2 sequence (P30988 25-474): T1 sequence (P30988 25-474)
T2 sequence (O60896 24-148 partner): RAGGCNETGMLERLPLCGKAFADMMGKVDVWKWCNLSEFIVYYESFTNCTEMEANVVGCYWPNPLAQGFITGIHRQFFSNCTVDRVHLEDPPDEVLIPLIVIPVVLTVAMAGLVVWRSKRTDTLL

[5] = bistrispropane buffer, pH 6, pH 6.0, read-out: Solubility pH 6.0
[6] = bistrispropane buffer, pH 6.5, pH 6.5, read-out: Solubility pH 6.5
[7] = bistrispropane buffer, pH 7, pH 7.0, 18 hours at room temperature, Table 3, read-out: Solubility pH 7.0
[8] = bistrispropane buffer, pH 7, pH 7.0, read-out: Solubility pH 7.0
[9] = bistrispropane buffer, pH 7.5, pH 7.5, read-out: Solubility pH 7.5
[10] = bistrispropane buffer, pH 8, pH 8.0, read-out: Solubility pH 8.0
[11] = glycylglycine buffer, pH 3, pH 3.0, read-out: Solubility pH 3.0
[12] = glycylglycine buffer, pH 4, pH 4.0, 18 hours at room temperature, Table 2, read-out: Solubility pH 4.0
[13] = glycylglycine buffer, pH 4, pH 4.0, read-out: Solubility pH 4.0
[14] = glycylglycine buffer, pH 5, pH 5.0, read-out: Solubility pH 5.0
[15] = Table 7, human calcitonin (CTa) receptor

solubility at 18 h [1, 5] | solubility at 18 h [1, 6] | solubility at 18 h [1, 7] | solubility at 18 h [1, 8] | solubility at 18 h [1, 9] | solubility at 18 h [1, 10] | solubility at 18 h [1, 11] | solubility at 18 h [1, 12] | solubility at 18 h [1, 13] | solubility at 18 h [1, 14] | ThT pH 4.0 lag time (h) ([2]; ThT fibrillation assay) | EC50 [4] | EC50 [3, 15] | Structure (SMILES) | other results
> 200 µM | > 200 µM | > 200 µM | > 200 µM | > 200 µM | > 200 µM | > 200 µM | > 200 µM | > 200 µM | > 200 µM | >45 h | 1.75 nM | – | CC[C@H](C)[C@H](NC(=O)[C@@H]1CCCN1C(=O)CNC(=O)[C@H](Cc1ccccc1)NC(=O)[C@H](CC(N)=O)NC(=O)[C@H](CO)NC(=O)[C@H](CO)NC(=O)[C@H](CO)NC(=O)[C@H](Cc1c[nH]cn1)NC(=O)[C@H](CCCCNC(=O)COCCOCCNC(=O)COCCOCCNC(=O)CC[C@H](NC(=O)CCCCCCCCCCCCCCCCC(=O)O)C(=O)O)NC(=O)[C@H](CC(C)C)NC(=O)[C@H](Cc1ccccc1)NC(=O)[C@H](CCC(=O)O)NC(=O)[C@H](C)NC(=O)[C@H](CC(C)C)NC(=O)[C@H](CCCNC(=N)N)NC(=O)[C@H](CCC(N)=O)NC(=O)[C@@H](NC(=O)[C@H](C)NC(=O)[C@@H]1CSSC[C@H](NC(=O)[C@@H](N)CCCCN)C(=O)N[C@@H](CC(N)=O)C(=O)N[C@@H]([C@@H](C)O)C(=O)N[C@@H](C)C(=O)N[C@@H]([C@@H](C)O)C(=O)N1)[C@@H](C)O)C(=O)N[C@@H](CC(C)C)C(=O)N1CCC[C@H]1C(=O)N1CCC[C@H]1C(=O)N[C@H](C(=O)N[C@@H](CC(N)=O)C(=O)N[C@H](C(=O)NCC(=O)N[C@@H](CO)C(=O)N[C@@H](CCC(=O)O)C(=O)N[C@H](C(=O)N[C@@H](Cc1ccc(O)cc1)C(N)=O)[C@@H](C)O)C(C)C)[C@@H](C)O [Example 83, N-epsilon17-[2-(2-{2-[2-(2-{2-[(S)-4-Carboxy-4-(17-carboxyheptadecanoylamino)butyrylamino]ethoxy}ethoxy)acetylamino]ethoxy}ethoxy)acetyl]-[Glu14,Lys17,Ser21,Glu35]-pramlintide] (H-KCNTATCATQRLAEFLK([AEEA-AEEA-γGlu-C18 diacid])HSSSNFGPILPPTNVGSETY-NH2; disulfide 2-7 (inferred); N-terminus and C-terminus assumed) | solubility at 18 h ([1]; bistrispropane buffer, pH 7, pH 7.0, Table 8, read-out: Solubility pH 7.0): > 200 µM; solubility at 18 h ([1]; bistrispropane buffer, pH 7, pH 7.0, Table 9, read-out: Solubility pH 7.0): > 200 µM; solubility at 18 h ([1]; bistrispropane buffer, pH 7.5, pH 7.5, Table 9, read-out: Solubility pH 7.5): > 200 µM; ThT pH 4.0 lag time ([2]; Table 8): >45 h; ThT pH 4.0 lag time ([2]; Table 9): >45 h; ThT pH 4.0 lag time ([2]; ThT fibrillation assay): >45 h; EC50 ([3]; Table 11, read-out: CTa receptor human EC50): 8.43 nM
> 200 µM | > 200 µM | 138 µM (≈ 614 µg/mL) | 138 µM (≈ 614 µg/mL) | > 200 µM | > 200 µM | > 200 µM | > 200 µM | > 200 µM | > 200 µM | 11.3 h | 0.119 nM | 0.286 nM | CC[C@H](C)[C@H](NC(=O)[C@@H]1CCCN1C(=O)CNC(=O)[C@H](Cc1ccccc1)NC(=O)[C@H](CC(N)=O)NC(=O)[C@H](CC(N)=O)NC(=O)[C@H](CO)NC(=O)[C@H](CO)NC(=O)[C@H](Cc1c[nH]cn1)NC(=O)[C@H](Cc1c[nH]cn1)NC(=O)[C@H](CC(C)C)NC(=O)[C@H](Cc1ccccc1)NC(=O)[C@H](CCC(=O)O)NC(=O)[C@H](C)NC(=O)[C@H](CC(C)C)NC(=O)[C@H](CCCNC(=N)N)NC(=O)[C@H](CCC(N)=O)NC(=O)[C@@H](NC(=O)[C@H](C)NC(=O)[C@@H]1CSSC[C@H](NC(=O)[C@@H](N)CCCCNC(=O)CC[C@H](NC(=O)CCCCCCCCCCCCCCCCC(=O)O)C(=O)O)C(=O)N[C@@H](CC(N)=O)C(=O)N[C@@H]([C@@H](C)O)C(=O)N[C@@H](C)C(=O)N[C@@H]([C@@H](C)O)C(=O)N1)[C@@H](C)O)C(=O)N[C@@H](CC(C)C)C(=O)N1CCC[C@H]1C(=O)N1CCC[C@H]1C(=O)N[C@H](C(=O)N[C@@H](CC(N)=O)C(=O)N[C@H](C(=O)NCC(=O)N[C@@H](CO)C(=O)N[C@@H](Cc1c[nH]cn1)C(=O)N[C@H](C(=O)N[C@@H](Cc1ccc(O)cc1)C(N)=O)[C@@H](C)O)C(C)C)[C@@H](C)O [Example 94, N-epsilon1-[(S)-4-Carboxy-4-(17-carboxyheptadecanoylamino)butyryl]-[Glu14,His17,His35]-pramlintide] (H-K([γGlu-C18 diacid])CNTATCATQRLAEFLHHSSNNFGPILPPTNVGSHTY-NH2; disulfide 2-7 (inferred); N-terminus assumed) | –
– | – | – | – | – | – | – | – | – | – | 13 h | 0.272 nM | 0.198 nM | CC[C@H](C)[C@H](NC(=O)[C@@H]1CCCN1C(=O)CNC(=O)[C@H](Cc1ccccc1)NC(=O)[C@H](CC(N)=O)NC(=O)[C@H](CC(N)=O)NC(=O)[C@H](CO)NC(=O)[C@H](CO)NC(=O)[C@H](Cc1c[nH]cn1)NC(=O)[C@H](Cc1c[nH]cn1)NC(=O)[C@H](CC(C)C)NC(=O)[C@H](Cc1ccccc1)NC(=O)[C@H](CCC(=O)O)NC(=O)[C@H](C)NC(=O)[C@H](CC(C)C)NC(=O)[C@H](CCCNC(=N)N)NC(=O)[C@H](CCC(N)=O)NC(=O)[C@@H](NC(=O)[C@H](C)NC(=O)[C@@H]1CSSC[C@H](NC(=O)[C@H](Cc2c[nH]cn2)NC(=O)[C@H](Cc2c[nH]cn2)NC(=O)[C@H](Cc2c[nH]cn2)NC(=O)CC[C@H](NC(=O)CCCCCCCCCCCCCCCCCCC(=O)O)C(=O)O)C(=O)N[C@@H](CC(N)=O)C(=O)N[C@@H]([C@@H](C)O)C(=O)N[C@@H](C)C(=O)N[C@@H]([C@@H](C)O)C(=O)N1)[C@@H](C)O)C(=O)N[C@@H](CC(C)C)C(=O)N1CCC[C@H]1C(=O)N[C@@H](Cc1c[nH]cn1)C(=O)N[C@H](C(=O)N[C@@H](CC(N)=O)C(=O)N[C@H](C(=O)NCC(=O)N[C@@H](CO)C(=O)N[C@@H](Cc1c[nH]cn1)C(=O)N[C@H](C(=O)N[C@@H](Cc1ccc(O)cc1)C(N)=O)[C@@H](C)O)C(C)C)[C@@H](C)O [Example 34, N-alpha-[(S)-4-Carboxy-4-(19-carboxynonadecanoylamino)butyryl]-His-His-[His1,Glu14,His17,His29,His35]-pramlintide] ({C20 diacid-γGlu}-HHHCNTATCATQRLAEFLHHSSNNFGPILPHTNVGSHTY-NH2; disulfide 4-9 (inferred)) | solubility at 18 h ([1]; 18 h, pH 7, read-out: Solubility pH 7.0): 0 µM; solubility at 18 h ([1]; 18 h, pH 7.5, read-out: Solubility pH 7.5): 0 µM; solubility at 18 h ([1]; pH 3, Solubility pH 3.0): > 200 µM; solubility at 18 h ([1]; pH 4, Solubility pH 4.0): > 200 µM; solubility at 18 h ([1]; pH 4, Solubility pH 4.0 (μM)): > 200 µM; solubility at 18 h ([1]; pH 5, Solubility pH 5.0): > 200 µM; solubility at 18 h ([1]; pH 6, Solubility pH 6.0): > 200 µM; solubility at 18 h ([1]; pH 6.5, Solubility pH 6.5): 4 µM (≈ 19.2 µg/mL); solubility at 18 h ([1]; pH 8, Solubility pH 8.0): 13 µM (≈ 62.4 µg/mL)
